Experimental findings from PMC9533460 (RSC Chemical Biology, 2022) are described below.

Molecules are shown by their SMILES.

Test [1] has as its target T1, ammonium–aspartate–lyase (AAL) (Pseudomonas alvandae, UniProt P0DXC8).
T1 sequence (P0DXC8 1-474): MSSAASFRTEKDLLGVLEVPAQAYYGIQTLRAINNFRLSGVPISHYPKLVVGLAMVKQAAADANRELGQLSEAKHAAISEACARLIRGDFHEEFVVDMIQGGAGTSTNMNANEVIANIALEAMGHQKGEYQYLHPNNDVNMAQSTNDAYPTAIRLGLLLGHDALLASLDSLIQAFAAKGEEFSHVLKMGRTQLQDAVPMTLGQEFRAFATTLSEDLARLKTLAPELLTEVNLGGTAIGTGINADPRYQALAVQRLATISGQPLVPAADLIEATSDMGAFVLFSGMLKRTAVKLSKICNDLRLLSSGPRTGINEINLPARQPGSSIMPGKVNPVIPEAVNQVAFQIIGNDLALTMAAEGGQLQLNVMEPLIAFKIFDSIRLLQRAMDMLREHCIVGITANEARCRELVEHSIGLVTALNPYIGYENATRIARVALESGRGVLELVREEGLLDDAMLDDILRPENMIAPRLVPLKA
As to the kind of experiment: 1H-NMR of coupled reaction homoserine to fumarate. Format: biochemical. To be noted: aspartate formed in situ by HD with AH or AC.

Test [2] deals with T2, canavanine-γ-lyase (CanγL); aminotransferase AT (Pseudomonas alvandae, UniProt P0DXC4).
T2 sequence (P0DXC4 1-400): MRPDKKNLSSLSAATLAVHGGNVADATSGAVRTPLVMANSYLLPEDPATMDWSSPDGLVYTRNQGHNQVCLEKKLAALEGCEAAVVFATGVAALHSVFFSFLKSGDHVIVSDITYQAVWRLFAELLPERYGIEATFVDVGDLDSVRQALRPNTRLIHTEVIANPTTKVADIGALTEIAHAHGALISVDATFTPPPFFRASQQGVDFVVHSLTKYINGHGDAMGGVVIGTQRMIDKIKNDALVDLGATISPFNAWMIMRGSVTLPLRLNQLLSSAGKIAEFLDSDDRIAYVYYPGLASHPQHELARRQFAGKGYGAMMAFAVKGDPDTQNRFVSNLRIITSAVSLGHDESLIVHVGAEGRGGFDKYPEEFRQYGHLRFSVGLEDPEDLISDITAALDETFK
As to the kind of experiment: UV/Vis spectra of the enzyme reaction. To be noted: covalent (internal aldimine with K213); canavanine as substrate. The format is binding.

Test [3] addresses T3, homoserine-dehydrogenase (HD) (Pseudomonas alvandae, UniProt P0DXC5).
T3 sequence (P0DXC5 1-352): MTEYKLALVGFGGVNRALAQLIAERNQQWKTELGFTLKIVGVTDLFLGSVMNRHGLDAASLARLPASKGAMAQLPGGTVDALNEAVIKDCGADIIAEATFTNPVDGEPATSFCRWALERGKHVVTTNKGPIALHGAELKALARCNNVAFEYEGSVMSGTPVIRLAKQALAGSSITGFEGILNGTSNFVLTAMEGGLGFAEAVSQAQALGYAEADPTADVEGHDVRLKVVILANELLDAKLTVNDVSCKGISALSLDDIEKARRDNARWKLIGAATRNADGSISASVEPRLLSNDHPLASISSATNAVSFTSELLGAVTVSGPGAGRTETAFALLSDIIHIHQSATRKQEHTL
As to the kind of experiment: NADH formation. The format is biochemical. Conditions: NAD+ as co-substrate.

The target of test [4] is T4, aldehyde-dehydrogenase 1 (AH) (Pseudomonas alvandae, UniProt P0DXC7).
T4 sequence (P0DXC7 1-470): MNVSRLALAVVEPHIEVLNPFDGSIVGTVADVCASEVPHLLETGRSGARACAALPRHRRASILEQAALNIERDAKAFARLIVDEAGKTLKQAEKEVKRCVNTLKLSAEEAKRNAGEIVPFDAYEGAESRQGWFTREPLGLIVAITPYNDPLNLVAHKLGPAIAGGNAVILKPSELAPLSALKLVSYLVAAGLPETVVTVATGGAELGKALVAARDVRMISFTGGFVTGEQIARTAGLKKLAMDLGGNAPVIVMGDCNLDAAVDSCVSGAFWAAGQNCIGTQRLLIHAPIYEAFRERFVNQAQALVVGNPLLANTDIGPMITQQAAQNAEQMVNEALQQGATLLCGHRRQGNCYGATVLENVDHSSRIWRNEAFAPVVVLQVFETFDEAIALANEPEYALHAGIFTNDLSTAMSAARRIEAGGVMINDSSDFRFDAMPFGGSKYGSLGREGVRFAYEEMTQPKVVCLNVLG
As to the kind of experiment: 1H-NMR of coupled reaction homoserine to fumarate. The format is biochemical. Conditions: aspartate semialdehyde formed in situ from homoserine by HD; with AAL.

Test [5] addresses T5, aldehyde-dehydrogenase 2 (AC) (Pseudomonas alvandae, UniProt P0DXC6).
T5 sequence (P0DXC6 1-485): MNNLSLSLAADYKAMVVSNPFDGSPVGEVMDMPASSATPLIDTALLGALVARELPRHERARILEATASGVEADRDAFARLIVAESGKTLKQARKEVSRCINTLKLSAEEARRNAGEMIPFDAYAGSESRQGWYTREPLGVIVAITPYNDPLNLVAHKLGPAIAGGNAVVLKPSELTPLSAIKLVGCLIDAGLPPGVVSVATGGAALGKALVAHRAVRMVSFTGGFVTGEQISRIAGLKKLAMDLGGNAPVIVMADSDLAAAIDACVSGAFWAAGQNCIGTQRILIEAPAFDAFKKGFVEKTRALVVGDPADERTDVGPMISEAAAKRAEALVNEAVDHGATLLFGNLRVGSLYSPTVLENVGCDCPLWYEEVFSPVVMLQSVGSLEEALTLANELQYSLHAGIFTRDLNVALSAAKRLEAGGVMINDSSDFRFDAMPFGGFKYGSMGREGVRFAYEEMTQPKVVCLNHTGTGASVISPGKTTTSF
As to the kind of experiment: 1H-NMR of coupled reaction homoserine to fumarate. The format is biochemical. To be noted: aspartate semialdehyde formed in situ from homoserine by HD; with AAL.

For test [6], the target named is T3, homoserine-dehydrogenase (HD). As to the kind of experiment: NADH formation. The format is biochemical. To be noted: homoserine as co-substrate.

Turning to `N[C@@H](CC(=O)O)C(=O)O` [aspartate], the “1H-NMR of coupled reaction homoserine to fumarate” value in test [1] was “AH or AC and AAL the formation of fumarate via aspartate was observed”.

`Cc1ncc(COP(=O)(O)O)c(C=O)c1O` [PLP]: the “UV/Vis spectra of the enzyme reaction; K213A comparison” value in test [2] was “Time-dependent increase of presumed aldimine and quinonoid peaks were observed for the wt enzyme”.

Turning to `N[C@@H](CCO)C(=O)O` [homoserine], in test [3], the “NADH formation; 1H-NMR of the coupled reaction” value was “homoserine-dehydrogenase (HD) which catalyzes the conversion of homoserine and NAD+”.

For `N[C@@H](CC=O)C(=O)O` [aspartate semialdehyde], the “1H-NMR of coupled reaction homoserine to fumarate” value in test [4] was “purified HD with either of the two aldehyde-dehydrogenases AH or AC and AAL”; in test [5] it was “purified HD with either of the two aldehyde-dehydrogenases AH or AC and AAL”.

Take `NC(=O)c1ccc[n+]([C@@H]2O[C@H](COP(=O)(O)OP(=O)(O)OC[C@H]3O[C@@H](n4cnc5c(N)ncnc54)[C@H](O)[C@@H]3O)[C@@H](O)[C@H]2O)c1` [NAD+]: the NADH formation entry in test [6] was “the reaction of HD was only dependent on the cofactor NAD^+”.
